Structures are written as SMILES.

A short description of series [1]: log P by HPLC on reversed-phase columns (C18), EEC Directive 79/831 Annex V.A8. The series is classed as physicochemical. Particulars: method [a]: LC-MS, acidic range, pH 2.7, 0.1% aqueous formic acid / acetonitrile, gradient 10% to 95% acetonitrile. On the procedure: The log P values were measured in accordance with EEC Directive 79/831 Annex V.A8 by HPLC (High Performance Liquid Chromatography) using reversed-phase columns (C18) by the following methods: [a] The LC-MS determination in the acidic range is effected at pH 2.7 with 0.1% aqueous formic acid and acetonitrile (contains 0.1% formic acid) as eluents; linear gradient from 10% acetonitrile to 95% acetonitrile.

In series [2] the test system is Leptosphaeria nodorum. The series can be described thus: Leptosphaeria nodorum test (wheat)/protective. The series is classed as in vivo. The following applies: protective spray, application rate 500 ppm, evaluation 8 days after inoculation, 0% = control, 100% = no infection. The protocol: (§1) Solvent: 49 parts by weight of N,N-dimethylacetamide
(§2) Emulsifier: 1 part by weight of alkylaryl polyglycol ether
(§3) To produce an appropriate active ingredient formulation, 1 part by weight of active ingredient is mixed with the specified amounts of solvent and emulsifier, and the concentrate is diluted with water to the desired concentration. To test for protective activity, young plants are sprayed with the formulation of active ingredient at the stated application rate. After the spray coating has dried on, the plants are sprayed with spores with a spore suspension of Leptosphaeria nodorum. The plants remain in an incubation cabin at 20° C. and 100% relative air humidity for 48 hours. The plants are placed in a greenhouse at a temperature of about 22° C. and a relative air humidity of about 80%. Evaluation follows 8 days after the inoculation. 0% means an efficacy which corresponds to that of the control, whereas an efficacy of 100% means that no infection is observed. In this test, the following inventive compounds, at an active ingredient concentration of 500 ppm, show an efficacy of 70% or more.

In series [3] the test system is Puccinia triticina. The series can be described thus: Puccinia triticina test (wheat)/protective. Particulars: protective spray, application rate 500 ppm, evaluation 8 days after inoculation, 0% = control, 100% = no infection. The series is classed as in vivo. The protocol:
as §1, §2
as §3, with “Puccinia triticina.” for “Leptosphaeria nodorum.”, “20°” for “22°”

In series [4] the test system is Blumeria graminis f sp. hordei. The series can be described thus: Blumeria graminis test (barley)/protective. The series is classed as in vivo. The following applies: protective spray, application rate 500 ppm, evaluation 7 days after inoculation, 0% = control, 100% = no infection. On the procedure: Solvent: 49 parts by weight of N,N-dimethylacetamide Emulsifier: 1 part by weight of alkylaryl polyglycol ether To produce an appropriate active ingredient formulation, 1 part by weight of active ingredient is mixed with the specified amounts of solvent and emulsifier, and the concentrate is diluted with water to the desired concentration. To test for protective activity, young plants are sprayed with the formulation of active ingredient at the stated application rate. After the spray coating has dried on, the plants are dusted with spores of Blumeria graminis f sp. hordei. The plants are placed in a greenhouse at a temperature of about 18° C. and a relative air humidity of about 80% to promote the development of mildew pustules. Evaluation follows 7 days after the inoculation. 0% means an efficacy which corresponds to that of the control, whereas an efficacy of 100% means that no infection is observed. In this test, the following inventive compounds, at an active ingredient concentration of 500 ppm, show an efficacy of 70% or more.

The subject of series [5] is Venturia inaequalis. The series can be described thus: Venturia test (apple)/protective. The series is classed as in vivo. The following applies: protective spray, application rate 100 ppm, evaluation 10 days after inoculation, 0% = control, 100% = no infection. The protocol: Solvent: 24.5 parts by weight of acetone • 24.5 parts by weight of dimethylacetamide Emulsifier: 1 part by weight of alkylaryl polyglycol ether To produce an appropriate active ingredient formulation, 1 part by weight of active ingredient is mixed with the specified amounts of solvent and emulsifier, and the concentrate is diluted with water to the desired concentration. To test for protective activity, young plants are sprayed with the active ingredient formulation at the stated application rate. After the spray coating has dried on, the plants are inoculated with an aqueous conidia suspension of the apple scab pathogen Venturia inaequalis and then remain in an incubation cabin at about 20° C. and 100% relative air humidity for 1 day. The plants are then placed in a greenhouse at about 21° C. and a relative air humidity of about 90%. Evaluation follows 10 days after the inoculation. 0% means an efficacy which corresponds to that of the control, whereas an efficacy of 100% means that no infection is observed. In this test, the following inventive compounds, at an active ingredient concentration of 100 ppm, show an efficacy of 70% or more.

The subject of series [6] is Uromyces appendiculatus. The series can be described thus: Uromyces test (bean)/protective. The series is classed as in vivo. The following applies: protective spray, application rate 100 ppm, evaluation 10 days after inoculation, 0% = control, 100% = no infection. The protocol:
Solvent: 24.5 parts by weight of acetone • 24.5 parts by weight of dimethylacetamide Emulsifier: 1 part by weight of alkylaryl polyglycol ether To produce an appropriate active ingredient formulation, 1 part by weight of active ingredient is mixed with the specified amounts of solvent and emulsifier, and the concentrate is diluted with water to the desired concentration. To test for protective activity, young plants are sprayed with the active ingredient formulation at the stated application rate. After the spray coating has dried on, the plants are inoculated with an aqueous spore suspension of the bean rust pathogen Uromyces appendiculatus and then remain in an incubation cabin at about 20° C. and 100% relative air humidity for 1 day. The plants are then placed in the greenhouse at about 21° C. and a relative air humidity of about 90%. Evaluation follows 10 days after the inoculation. 0% means an efficacy which corresponds to that of the control, whereas an efficacy of 100% means that no infection is observed. In this test, the following inventive compounds, at an active ingredient concentration of 100 ppm, show an efficacy of 70% or more.

For `CC(C)(C)C(O)(COc1ccc(I)cc1Cl)c1cncs1` (stereo not drawn) [compound 5], the logP result in series [1] was “logP 4.14^[a]; [M + H]^+ = 438”.

For the compound `CC1(C(O)(COc2cc(Br)cc(Br)c2)c2cncs2)CC1` (stereo not drawn) [compound 7], the logP entry in series [1] was “logP 4.03^[a]; [M + H]^+ = 434”.

For the compound `CC1(C(O)(COc2ccc(I)c([N+](=O)[O-])c2)c2cncs2)CC1` (stereo not drawn) [compound 15], in series [1], the logP entry was “logP 3.11^[a]; [M + H]^+ = 447”.

With `CC(C)(C)C(O)(COc1ccc(OC(F)(F)F)cc1Cl)c1cncs1` (stereo not drawn) [compound 29], the logP result in series [1] was “logP 4.10^[a]; [M + H]^+ = 396”.

In the case of `CC(C)(C)C(O)(COc1ccc(OC(F)(F)F)c(Br)c1)c1cncs1` (stereo not drawn) [compound 41], in series [1], the logP entry is “logP 4.12^[a]”.

Consider `Cc1cc(OC(F)(F)F)ccc1OCC(O)(c1cncs1)C(C)(C)C` (stereo not drawn) [compound 42], for which the logP result in series [1] was “logP 4.12^[a]”.

With `CC(C)(C)C(O)(Cc1ccc(F)cc1F)c1cncs1` (stereo not drawn) [Compound No. 31], the chromatographic logP in series [1] (reversed-phase HPLC column (C18)) came out at 3.04.

With `CSc1ccc(OCC(O)(c2cncs2)C(C)(C)C)cc1C` (stereo not drawn) [compound 28], in series [1], the logP entry is “logP 3.63^[a]; [M + H]^+ = 338”.

As to `CC(C)(C)C(O)(COc1ccc(Br)cc1F)c1cncs1` (stereo not drawn) [Compound No. 3], the “Efficacy (%)” value in series [2], in series [3] and in series [4] was 100% throughout.

In the case of `CC(C)(C)C(O)(COc1ccc(SC(F)(F)F)c(F)c1)c1cncs1` (stereo not drawn) [compound 16], in series [1], the logP entry is “logP 3.96^[a]; [M + H]^+ = 396”.

Regarding `Cc1cc(OCC(O)(c2cncs2)C(C)(C)C)ccc1Cl` (stereo not drawn) [compound 27], in series [1], the logP entry was “logP 3.74^[a]; [M + H]^+ = 326”.

Consider `Cc1cc(SC(F)(F)F)ccc1OCC(O)(c1cncs1)C(C)(C)C` (stereo not drawn) [compound 23], for which, in series [1], the logP entry was “logP 4.43^[a]; [M + H]^+ = 392”.

As for `CC1(C(O)(COc2ccc(Br)c(C(F)(F)F)c2)c2cncs2)CC1` (stereo not drawn) [compound 13], the logP result in series [1] is “logP 3.70^[a]; [M + H]^+ = 422, 424”.

For `CC(C)(C)C(O)(COc1ccc(F)cc1F)c1cncs1` (stereo not drawn) [compound 34], in series [1], the logP result was “logP 2.98^[a]”.

For the compound `Cc1cc(Cl)ccc1OCC(O)(c1cncs1)C(C)(C)C` (stereo not drawn) [compound 25], the logP result in series [1] was “logP 3.77^[a]; [M + H]^+ = 326”.

In the case of `CC(C)(C)C(O)(COc1ccc(Br)cc1Cl)c1cncs1` (stereo not drawn) [Compound No. 2], the “Efficacy (%)” value in series [2] is reported as 92%; in series [3] it was 95%; in series [4], 100%.

`CC(C)(C)C(O)(COc1ccc(I)cc1F)c1cncs1` (stereo not drawn) [compound 1]: the “Efficacy (%)” value in series [2] was found to be 100%; in series [5], 97%; in series [3], 100%; in series [6], 100%; in series [4], 100%.

Turning to `COc1cc(OC(F)(F)F)ccc1OCC(O)(c1cncs1)C(C)(C)C` (stereo not drawn) [compound 14], the logP result in series [1] was “logP 3.70^[a]; [M + H]^+ = 392”.

Take `Cc1cc(OCC(O)(c2cncs2)C(C)(C)C)ccc1S(C)(=O)=O` (stereo not drawn) [compound 17]: the logP result in series [1] was “logP 2.21^[a]; [M + H]^+ = 370”.

For `COc1cc(Br)ccc1OCC(O)(c1cncs1)C1(C)CC1` (stereo not drawn) [compound 35], the logP result in series [1] was “logP 3.26^[a]”.

With `CC(C)(C)C(O)(COc1ccc(Cl)c(Cl)c1)c1cncs1` (stereo not drawn) [compound 39], the logP entry in series [1] is “logP 3.72^[a]”.

Consider `Cc1cc(I)ccc1OCC(O)(c1cncs1)C1(C)CC1` (stereo not drawn) [compound 10], for which the logP entry in series [1] was “logP 3.88^[a]; [M + H]^+ = 416”.

Turning to `CC(C)(C)C(O)(COc1ccc(Cl)cc1Cl)c1cncs1` (stereo not drawn) [compound 33], the logP entry in series [1] was “logP 3.84^[a]”.

As for `COc1cc(S(=O)(=O)C(F)(F)F)ccc1OCC(O)(c1cncs1)C(C)(C)C` (stereo not drawn) [compound 20], in series [1], the logP result is “logP 3.37^[a]; [M + H]^+ = 440”.

As to `CC(C)(C)C(O)(COc1ccc(SC(F)(F)F)c(Cl)c1)c1cncs1` (stereo not drawn) [compound 21], in series [1], the logP entry is “logP 4.31^[a]; [M + H]^+ = 412”.

`CC1(C(O)(COc2ccc(Br)cc2F)c2cncs2)CC1` (stereo not drawn) [compound 32]: the logP result in series [1] was “logP 3.32^[a]; [M + H]+ = 372, 374”.

Take `CC(C)(C)C(O)(COc1ccc(Cl)cc1C(F)(F)F)c1cncs1` (stereo not drawn) [compound 37]: the logP result in series [1] is “logP 3.96^[a]”.

Take `Cc1cc(OCC(O)(c2cncs2)C(C)(C)C)ccc1[S+](C)[O-]` (stereo not drawn) [compound 18]: the logP entry in series [1] was “logP 1.90^[a]; [M + H]^+ = 354”.

Take `CC(C)(C)C(O)(COc1ccc(OC(F)(F)F)c(Cl)c1)c1cncs1` (stereo not drawn) [compound 24]: the logP result in series [1] was “logP 4.02^[a]; [M + H]^+ = 396”.

Regarding `COc1cc(OCC(O)(c2cncs2)C2(C)CC2)ccc1Br` (stereo not drawn) [compound 36], the logP entry in series [1] was “logP 3.16^[a]”.

On to `Cc1cc(OCC(O)(c2cncs2)C(C)(C)C)ccc1SC(F)(F)F` (stereo not drawn) [compound 22], for which, in series [1], the logP entry is “logP 4.35^[a]; [M + H]^+ = 392”.

With `CC(C)(C)C(O)(COc1ccc(Cl)cc1F)c1cncs1` (stereo not drawn) [compound 26], in series [1], the logP entry was “logP 3.37^[a]; [M + H]^+ = 330”.

Regarding `Cc1cc(S(=O)(=O)C(F)(F)F)ccc1OCC(O)(c1cncs1)C(C)(C)C` (stereo not drawn) [compound 19], in series [1], the logP result is “logP 3.63^[a]; [M + H]^+ = 424”.

For `CC1(C(O)(COc2ccc(Br)c(F)c2)c2cncs2)CC1` (stereo not drawn) [compound 12], in series [1], the logP entry was “logP 3.30^[a]; [M + H]^+ = 372, 374”.

For the origin of these results see patent US8436189B2, “Heterocyclic alkanol derivatives” (Bayer Intellectual Property GmbH, priority 2010, dated 2013).
